According to the METLIN SMRT retention time set (Domingo-Almenara et al. 2019):

Assay: gradient 5% acetonitrile 3 min, to 50% in 2 min, to 85% in 15 min, held 3 min, 100 µL/min
Conditions: column: Zorbax Extend-C18 2.1 x 50 mm; eluents: water / acetonitrile, 0.1% formic acid
Summary of the method: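 Pure standards were analyzed in mixtures of ~100 molecules using HPLC coupled to a quadrupole time-of-flight mass spectrometer, in both positive and negative ionization mode. Separation used a Zorbax Extend-C18 column (2.1 × 50 mm, 1.8 μm) at 100 μL/min, with water and acetonitrile each containing 0.1% formic acid. Dead and dwell volumes were 40 μL and 900 μL, and data were collected over 3 months. Retention time was read from computationally picked adduct peaks, each inspected manually.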

Row | SMILES | RP-LC retention time
1 | CC1(C)CNc2cc(NC(=O)c3cccnc3NCc3ccncc3)ccc21 | 603 s
2 | Cc1ccc(CNC(=O)Cn2cnc3nc(N4CCCC(C(=O)NC(C)C)C4)sc3c2=O)cc1 (stereo not drawn) | 710 s
3 | CSc1ccc(-c2nc3cnccn3c2Nc2ccc3c(c2)OCCO3)cc1 | 863 s
4 | CC1CCCCN1CCCNC(=O)CCC(=O)N1CCc2c(c(C(=O)N3CCCCC3)nn2C)C1 (stereo not drawn) | 578 s
5 | O=C(CCc1nc2ccccc2[nH]1)NCC1CCOCC1 | 555 s
6 | Cc1ccc(C)c(NC(=O)C2CCCN(S(=O)(=O)c3cc(-c4noc(C)n4)cs3)C2)c1 (stereo not drawn) | 1060 s
7 | Cc1nc(C)c(C(=O)Nc2nc(-c3ccc(Cl)cc3)cs2)s1 | 992 s
8 | CCOC(=O)c1c(NC(=O)CSc2nc(=O)n3cccc(C)c3n2)sc2c1CCC2 | 950 s
9 | CCCNS(=O)(=O)c1cc(-c2c(CC)noc2NC(C)=O)ccc1OC | 774 s
10 | O=C(Nc1nccs1)C1CCN(C(=O)c2ccc([N+](=O)[O-])o2)CC1 | 658 s
11 | Cc1nc(-c2ccc(F)cc2)sc1C(=O)NC(C)C | 890 s
12 | Cc1cc2c(cc1S(=O)(=O)N1CCN(c3ccccn3)CC1)OCCN2C | 668 s
13 | COc1cc(C(=O)N2CCC(C(=O)NCCc3cscn3)CC2)cc(OC)c1OC | 631 s
14 | CCCCN(C)C(=O)C1CCN(c2cncnc2N(C)C)CC1 | 611 s
15 | CCNC(=O)C1CCCN(c2nc3ncn(CC(=O)Nc4ccc(C)c(Cl)c4)c(=O)c3s2)C1 (stereo not drawn) | 738 s
16 | CCCCC(SC1=Nc2ccccc2C2=NC(Cc3c[nH]c4ccccc34)C(=O)N12)C(=O)OCC (stereo not drawn) | 1110 s
17 | CSc1cccc(NC(=O)N2CCC(C)(C(=O)NCc3ccc4c(c3)OCO4)CC2)c1 | 837 s
18 | Cc1cnc(C(=O)N2CC(n3cc(COc4ccncc4)nn3)C2)cn1 | 553 s
19 | CC(C)n1cnc(S(=O)(=O)N2CCC(C(=O)Nc3ccc(F)c(Cl)c3)CC2)c1 | 834 s
20 | O=S(=O)(c1ccc(Cl)cc1)N1CCC2(CC1)NCCN=C2NCc1ccc(F)cc1 | 744 s
21 | Cn1cnc2c(C(=O)NC3CCCCCC3)nn(-c3ccc(Cl)cc3)c2c1=O | 929 s
22 | CCS(=O)(=O)N1CC(=O)N(c2ccccc2C)C(C)(C(=O)NCc2ccccc2)C1 (stereo not drawn) | 802 s
23 | Cc1nc(-c2ccc(N3CCN(C(=O)c4cccc(F)c4)CC3)nc2)sc1C | 921 s
24 | CNC(=O)Cc1ccc(NS(=O)(=O)Cc2ccc(Cl)cc2)cc1 | 703 s
25 | CC(C)NC(=O)c1nc(N2CCSCC2)c2cnn(C)c2n1 | 705 s

Row | SMILES | RP-LC retention time
26 | COc1ccccc1CNC(=O)C1CCCN(C(=O)C2Sc3ccccc3NC2=O)C1 (stereo not drawn) | 736 s
27 | CCn1c(=O)c2ccn(CC(=O)N3CCN(Cc4ccc5c(c4)OCO5)CC3)c2n(CC)c1=O | 591 s
28 | COc1ccc(Cl)cc1C(=O)N1CCN(c2cc(C)nc(N3CCCC3)n2)CC1 | 665 s
29 | NC(=O)C1CCN(C(=O)NC2CC(=O)N(c3ccc(Cl)cc3)C2)CC1 (stereo not drawn) | 587 s
30 | CCCN1C(=O)c2cccnc2Sc2cc(C(=O)NC3CCCC3)ccc21 | 837 s
31 | O=C1CCc2cc(S(=O)(=O)NCCc3ccc(Cl)cc3)cc3c2N1CCC3 | 903 s
32 | CCCNC(=O)N1CCN(Cc2nc3cccnc3n2-c2ccccc2)CC1 | 597 s
33 | Cc1cc(Cl)ccc1NC(=O)N(C)CC1CCOC1 (stereo not drawn) | 756 s
34 | O=C(NCc1ccc(F)cc1Cl)C1CCN(c2ncnc3c2oc2ccccc23)CC1 | 790 s
35 | CCCN(CCC)CCCNC(=O)C1CCCN(c2ncc(-c3ccc(F)cc3)cn2)C1 (stereo not drawn) | 749 s
36 | Cc1nn(-c2ccccc2)c(C)c1S(=O)(=O)N1CCC(C(=O)NCCc2cccs2)CC1 | 881 s
37 | O=C(NCc1ccc2c(c1)OCO2)C(=O)NCC1OCCN1S(=O)(=O)c1ccccc1 (stereo not drawn) | 752 s
38 | COCCN1[C@@H]2CCN(Cc3ccc(C#N)cc3)C[C@@]2(C(=O)N2CCOCC2)CCS1(=O)=O | 641 s
39 | N#Cc1ccc(NC2c3ccccc3CC2O)cc1 (stereo not drawn) | 822 s
40 | COc1ccc2c(c1)c(CN1CCOCCNC(=O)CC1)cn2C(C)C | 642 s
41 | CCN(CC)c1ccc(NC(=O)Cn2cc3c(n2)CCCCC3)c(C)c1 | 674 s
42 | O=C(NCCc1cccs1)C1CCCN(C(=O)c2cccn2-c2cccnc2)C1 (stereo not drawn) | 848 s
43 | CCN1CCn2cc(S(=O)(=O)N3CCN(c4cccc(Cl)c4)CC3)cc2C1=O | 872 s
44 | CCc1cc(C(=O)N2CCCCCC2)nc2cc(-c3ccsc3)nn12 | 1070 s
45 | CCn1cc(CC(=O)NC2CCCCCC2)c2cccnc21 | 768 s
46 | CN1C(=O)C2CCCCN2c2ccc(C(=O)NCCCN3CCN(C4CCCCC4)CC3)cc21 (stereo not drawn) | 594 s
47 | O=C(NCc1ccc2c(c1)OCO2)C1CCCN(C(=O)c2cc(-c3cccnc3)n[nH]2)C1 (stereo not drawn) | 584 s
48 | Cc1ccc2c(C)nc(Nc3ncc4c(n3)CCCC4=O)nc2c1 | 598 s
49 | CNC(=O)c1c(C)c(-c2ccccc2)n(C)c1C | 812 s

Results, then the compound that gave them:

Row | RP-LC retention time | SMILES
50 | 660 s | COc1ccc(N2CCN(Cc3nc4nc(C)cc(N5CCCCC5)n4n3)CC2)cc1
51 | 969 s | CCOc1cccc(CNC(=O)c2c(O)c3cccnc3[nH]c2=O)c1
52 | 699 s | COc1ccccc1N(CN1CCCC1=O)C(=O)COc1ccccc1
53 | 658 s | COc1ccc(NC(=O)N2CCN(Cc3cn(C)c4ccccc34)CC2)cc1
54 | 650 s | COc1ccc(NC(=O)NCC(c2cccnc2)c2c[nH]c3ccccc23)c(OC)c1 (stereo not drawn)
55 | 1120 s | COc1ccc(CN2C=C(C(=O)OCc3noc(-c4cccc(OC)c4)n3)C(C)=NS2(=O)=O)cc1
56 | 794 s | O=C(NCc1ccco1)c1ccc2c(c1)CC(=O)N2Cc1ccc(F)cc1
57 | 715 s | COc1cccc(-c2c(C(=O)O)nnn2-c2ccc(OC)c(OC)c2)c1
58 | 736 s | CN(C)c1cccc(C(=O)Nc2ccc(-c3nnc4n3CCCC4)cc2)c1
59 | 1400 s | CCOc1nc2ccccc2nc1N1CCCC(C(=O)Nc2cc(C)c(Cl)cc2OC)C1 (stereo not drawn)
60 | 1140 s | CCc1cc(C(=O)Nc2cc(C)ccc2C)nc2ccnn12
61 | 1130 s | CCN1C(=O)COc2ccc(-c3noc(-c4cccc(OC)c4)n3)cc21
62 | 1030 s | Cn1c(=O)oc2cc(-c3noc(CCc4ccccc4)n3)ccc21
63 | 798 s | Cc1ccc2c(NCc3ccc(F)cc3)c(-c3nc(C(C)C)no3)cnc2n1
64 | 1050 s | CCc1ccc(NC(=O)Cn2c(=O)cc(-c3nc(C4CC4)no3)c3ccccc32)cc1
65 | 1010 s | CCOC(=O)c1cc(C)nc2c1c(=O)n(Cc1cccc(F)c1)c(=O)n2C
66 | 878 s | CCc1cccc(C)c1Nc1c(-c2ccc(C)cc2)nc2ncccn12
67 | 857 s | CCOC(=O)c1c(S(=O)(=O)N2CCC(C(=O)Nc3ccc(OC)cc3)CC2)c(C)n(CC)c1C
68 | 1330 s | CCN(C(=O)c1ccccc1Br)c1nc(-c2ccccc2)cs1
69 | 1100 s | COc1ccccc1-c1noc(Cn2ncn3nc(-c4cc(C)ccc4C)cc3c2=O)n1

Row | RP-LC retention time | SMILES
70 | 1010 s | CC1=NS(=O)(=O)N(C)C=C1C(=O)OCc1nc(-c2cccc(Cl)c2)no1
71 | 731 s | O=C(NCCc1ccccc1)N1CCC(c2noc(-c3ccncc3)n2)C1 (stereo not drawn)
72 | 896 s | COC(=O)c1ccc2c(=O)n(-c3ccc(OC)cc3)c(N3CCOCC3)nc2c1
73 | 710 s | CS(=O)(=O)c1ccc(CC(=O)Nc2cccc3ccccc23)cc1
74 | 946 s | COc1ccc(-n2c(=O)c3sccc3n(Cc3nc(-c4ccccc4Cl)no3)c2=O)cc1
75 | 757 s | Cc1cc(=O)n2c(-c3ccc(NC(=O)C(C)Oc4ccc5c(c4)OCO5)cc3)csc2n1 (stereo not drawn)
76 | 787 s | Cc1ccc2nc(NC(=O)C3CC(=O)N(c4n[nH]c5ccccc45)C3)sc2c1 (stereo not drawn)
77 | 963 s | CCc1ccc(CN2C(=O)CN(S(C)(=O)=O)CC2(C)C(=O)NCc2ccc(C)cc2)cc1 (stereo not drawn)
78 | 611 s | CC(=O)NCCc1nc2ccccc2n1CCCOc1cccc2ccccc12
79 | 1060 s | CCOC(=O)c1noc2ncnc(Nc3ccc(CC)cc3)c12
80 | 592 s | CCOC(=O)CNC(=O)NCCn1c(-c2ccc(F)cc2)nc2ccccc21
81 | 958 s | CCCOC(=O)c1ccc(Oc2c(C)oc3cc(OCC#N)ccc3c2=O)cc1
82 | 616 s | O=C(c1ccc(CS(=O)(=O)c2ccc(Br)cc2)o1)N1CCN(c2ccccn2)CC1
83 | 826 s | Cc1noc(-c2ccc(OC3CN(C(=O)Cc4ccsc4)C3)cc2)n1
84 | 771 s | CNC(=O)C1CCN(c2nc3ccc(-c4ccc(OC)cc4)nc3s2)CC1
85 | 918 s | COc1ccc(OC)c(S(=O)(=O)N2CCC(n3cnc4c(C)cccc4c3=O)CC2)c1
86 | 1140 s | Cc1cc(Cl)ccc1S(=O)(=O)N1CC(c2nc(Cc3ccccc3)no2)C1
87 | 1280 s | Cc1nc2c(sc3nc(-c4ccccc4)ccc32)c(=O)n1CC(=O)Nc1ccc(C(F)(F)F)cc1
88 | 856 s | Cc1ccc(CNC(=O)C2(C)CN(S(C)(=O)=O)CC(=O)N2c2cccc(C)c2C)cc1 (stereo not drawn)
